The text below walks through data of ChEMBL document CHEMBL1201862, “PubChem BioAssay data set” (2004).

Active and inactive are the calls of the source. A value given as a limit tells only on which side of the number the result lay.

For orientation: IC50 means the concentration that gives 50% inhibition. What is called EC50 is the concentration needed to bring the measured effect to its halfway point. In general, CC50 refers to the concentration at which the toxic effect on the cells reaches its halfway point. Broadly, the AC50 is the midpoint of the concentration-response curve, whichever way the signal moves.

Assay [1] deals with T1, Sentrin-specific protease 7 (Homo sapiens, UniProt Q9BQF6).
T1 sequence (Q9BQF6 whole entry): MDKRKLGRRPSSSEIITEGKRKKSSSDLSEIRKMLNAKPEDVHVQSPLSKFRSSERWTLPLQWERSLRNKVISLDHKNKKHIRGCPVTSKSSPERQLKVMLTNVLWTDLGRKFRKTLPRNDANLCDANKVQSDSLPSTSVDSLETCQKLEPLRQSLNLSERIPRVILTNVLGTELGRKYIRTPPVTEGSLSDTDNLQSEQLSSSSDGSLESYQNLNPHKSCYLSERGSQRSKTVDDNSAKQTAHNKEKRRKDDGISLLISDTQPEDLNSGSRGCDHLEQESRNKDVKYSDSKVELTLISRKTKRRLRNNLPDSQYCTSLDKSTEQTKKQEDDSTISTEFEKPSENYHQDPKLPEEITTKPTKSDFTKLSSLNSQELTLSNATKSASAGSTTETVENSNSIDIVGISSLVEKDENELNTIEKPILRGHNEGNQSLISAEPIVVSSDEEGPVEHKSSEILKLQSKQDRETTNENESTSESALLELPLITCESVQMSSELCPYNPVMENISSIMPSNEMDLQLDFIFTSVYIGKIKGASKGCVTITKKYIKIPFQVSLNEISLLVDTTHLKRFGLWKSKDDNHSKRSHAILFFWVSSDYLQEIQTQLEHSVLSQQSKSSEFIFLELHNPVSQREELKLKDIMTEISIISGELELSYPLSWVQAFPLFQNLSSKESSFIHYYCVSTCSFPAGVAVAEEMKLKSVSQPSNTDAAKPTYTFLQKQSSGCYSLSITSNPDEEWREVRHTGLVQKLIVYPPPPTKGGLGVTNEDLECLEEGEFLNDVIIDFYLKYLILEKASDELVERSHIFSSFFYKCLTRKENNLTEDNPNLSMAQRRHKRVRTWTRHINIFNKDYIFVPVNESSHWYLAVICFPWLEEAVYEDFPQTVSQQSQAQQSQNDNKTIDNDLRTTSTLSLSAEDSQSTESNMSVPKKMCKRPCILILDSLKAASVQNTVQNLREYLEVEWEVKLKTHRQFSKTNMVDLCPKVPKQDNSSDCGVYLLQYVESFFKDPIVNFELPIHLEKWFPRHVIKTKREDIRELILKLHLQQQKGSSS
The assay is described as follows: SENP7 protease inhibitors, SAR follow-up, biochemical, luminescence, set 2 (AID 588600). The format is functional.

For assay [2], the target named is T2, Sentrin-specific protease 8 (Homo sapiens, UniProt Q96LD8).
T2 sequence (Q96LD8 whole entry): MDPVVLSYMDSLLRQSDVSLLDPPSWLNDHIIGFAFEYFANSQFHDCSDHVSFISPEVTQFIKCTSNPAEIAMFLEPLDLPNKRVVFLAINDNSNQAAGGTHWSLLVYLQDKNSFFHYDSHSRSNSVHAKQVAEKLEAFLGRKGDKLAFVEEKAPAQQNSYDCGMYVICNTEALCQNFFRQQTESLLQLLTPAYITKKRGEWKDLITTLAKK
The assay is described as follows: SENP8 protease inhibitors, SAR follow-up, biochemical, luminescence (AID 504501). The format is functional.

The target of assay [3] is T1, Sentrin-specific protease 7. The assay is described as follows: SENP7 protease inhibitors, SAR follow-up, biochemical, luminescence (AID 504497). It is filed as functional.
Assay [4] has as its target T2, Sentrin-specific protease 8. In words: SENP8 protease inhibitors, SAR follow-up, biochemical, luminescence, set 2 (AID 588601). The format is functional.
In assay [5] the target is T3, Caspase-3 (Homo sapiens, UniProt P42574).
T3 sequence (P42574 whole entry): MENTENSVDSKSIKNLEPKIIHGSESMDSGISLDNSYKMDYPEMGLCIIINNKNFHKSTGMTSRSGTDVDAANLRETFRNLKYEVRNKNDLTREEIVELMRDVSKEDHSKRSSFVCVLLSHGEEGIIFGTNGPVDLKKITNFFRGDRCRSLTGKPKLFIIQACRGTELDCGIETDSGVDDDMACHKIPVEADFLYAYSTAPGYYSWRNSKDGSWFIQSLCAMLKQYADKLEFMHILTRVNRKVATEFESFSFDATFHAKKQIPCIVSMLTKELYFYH
In words: caspase-3 inhibitors as off-family protease, SAR follow-up, selectivity assay for SENP protease inhibitor project, biochemical, luminescence, set 2 (AID 588599). It is filed as functional.

In assay [6] the target is T3, Caspase-3. In words: SAR Analysis of small molecule inhibitors of Sentrin-specific proteases (SENPs) using a Caspase-3 Selectivity assay. [Related pubchem assays (depositor defined):AID2540, AID2599, AID434973, AID489001]. The format is functional.
Assay [7] addresses T4, Sentrin-specific protease 6 (Homo sapiens, UniProt Q9GZR1).
T4 sequence (Q9GZR1 whole entry): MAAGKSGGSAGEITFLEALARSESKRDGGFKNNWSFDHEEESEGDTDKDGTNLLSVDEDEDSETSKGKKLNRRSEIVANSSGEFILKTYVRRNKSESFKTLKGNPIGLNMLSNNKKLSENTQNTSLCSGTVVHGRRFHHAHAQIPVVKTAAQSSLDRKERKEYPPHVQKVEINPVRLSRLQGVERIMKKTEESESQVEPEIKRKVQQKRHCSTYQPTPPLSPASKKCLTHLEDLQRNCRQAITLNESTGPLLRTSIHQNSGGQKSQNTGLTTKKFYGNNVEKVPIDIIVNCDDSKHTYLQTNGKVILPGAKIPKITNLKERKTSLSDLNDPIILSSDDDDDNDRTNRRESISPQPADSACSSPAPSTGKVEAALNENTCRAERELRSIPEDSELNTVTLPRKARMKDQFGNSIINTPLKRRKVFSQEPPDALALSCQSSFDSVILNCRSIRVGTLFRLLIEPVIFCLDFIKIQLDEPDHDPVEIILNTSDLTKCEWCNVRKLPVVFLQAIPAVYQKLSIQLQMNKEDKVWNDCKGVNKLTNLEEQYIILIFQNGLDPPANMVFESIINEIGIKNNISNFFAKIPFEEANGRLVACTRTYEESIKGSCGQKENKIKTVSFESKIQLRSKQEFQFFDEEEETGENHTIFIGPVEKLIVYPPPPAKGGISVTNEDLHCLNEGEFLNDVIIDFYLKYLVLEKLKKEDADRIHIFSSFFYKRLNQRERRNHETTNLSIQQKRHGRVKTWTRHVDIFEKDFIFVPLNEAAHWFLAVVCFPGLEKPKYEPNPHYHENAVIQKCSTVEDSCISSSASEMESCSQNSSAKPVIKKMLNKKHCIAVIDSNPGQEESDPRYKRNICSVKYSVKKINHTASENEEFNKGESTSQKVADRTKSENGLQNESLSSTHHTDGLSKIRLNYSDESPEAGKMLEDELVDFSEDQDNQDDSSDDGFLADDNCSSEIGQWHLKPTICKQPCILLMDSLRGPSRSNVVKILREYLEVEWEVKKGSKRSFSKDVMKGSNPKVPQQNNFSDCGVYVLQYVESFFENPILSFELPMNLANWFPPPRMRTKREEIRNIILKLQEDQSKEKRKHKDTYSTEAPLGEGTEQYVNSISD
In words: SENP6 protease inhibitors, SAR follow-up, biochemical, luminescence, set 2 (AID 588598). It is filed as functional.

The target of assay [8] is T4, Sentrin-specific protease 6. The assay is described as follows: SAR Analysis of small molecule inhibitors of Sentrin-specific protease 6 (SENP6) using a Luminescent assay. [Related pubchem assays (depositor defined):AID2582, AID2599]. The format is functional.
Assay [9] addresses T5, Endoribonuclease toxin MazF (Escherichia coli K-12, UniProt P0AE70).
T5 sequence (P0AE70 whole entry): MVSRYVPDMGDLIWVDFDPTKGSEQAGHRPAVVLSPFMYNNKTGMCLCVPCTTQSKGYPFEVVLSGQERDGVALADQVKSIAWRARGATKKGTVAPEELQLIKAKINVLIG
In words: MazF endoribonuclease activators, SAR follow-up, biochemical, fluorescence, single-stranded RNA substrate (AID 588603). It is filed as functional.

Assay [10] has as its target T5, Endoribonuclease toxin MazF. In words: SAR analysis of small molecule activators of the MazEF TA System via a fluorescence-based single-stranded RNase assay counterscreen. [Related pubchem assays (depositor defined):AID504720, AID504743]. The format is functional. In general terms: Counterscreens check selectivity or assay interference.
A further assay deals with MEF. In words: SAR analysis of small molecule cytotoxicity of MazEF TA System activators in embryonic fibroblast (MEF) cells. [Related pubchem assays (depositor defined):AID504720, AID504743]. The format is functional. The conditions noted are these: Mus musculus.
Assay [11] concerns the target T5, Endoribonuclease toxin MazF. In words: MazF toxin RNase activators, dose response, biochemical, fluorescence, single-stranded RNA substrate, uHTS hits (AID 588481). It is filed as functional.
The target is the same in assay [12]. In words: fluorescent RNA oligo signal without MazF, dose response, counter-screen for MazEF activator project, biochemical, fluorescence, single-stranded RNase substrate (AID 588502). It is filed as functional.
Another assay addresses Beta Lactamase (Pseudomonas aeruginosa, UniProt Q932Y6). The assay is described as follows: beta-lactamase reporter inhibitor potency, dose response, artefact control for TLR9-MyD88 binding inhibitor project, BLA reporter cells, FRET fluorescence (AID 588341).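 Further: cell based assay in CHO-K1 cells stably expressing beta-lactamase.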 The format is cell-based.
A further assay concerns CHO. The assay is described as follows: cytotoxicity in TLR9-MyD88 CHO cells, dose response, cytotoxicity control for TLR9-MyD88 binding inhibitor project, cell-based, luminescence (AID 588339).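 Further: CHO cells stably coexpressing TLR9 and MyD88 fusions from primary screen; compound exposure lasted 48 hours before viability readout.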 It is filed as functional, hamster. The following applies: Cricetulus griseus.
Assay [13] in a line: inhibitors of firefly luciferase expression or activity, dose response, H4 neuroglioma cells, luminescence (AID 1990). It is filed as functional, cell-based.
The test system of a further assay is INS1. The assay is described as follows: beta cell apoptosis inhibitors, cytokine rescue, dose response, luminescence, retest (AID 449756).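 Further: cell death triggered by IL-1 beta plus TNF-alpha plus IFN-gamma mixture; protective hits raise ATP signal compared with cytokine alone wells.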 It is filed as functional, cell-based. The conditions noted are these: Rattus norvegicus.
Assay [14] in a line: HepG2 cell cytotoxicity, dose response, cytotoxicity control for Shn3 inhibitor project, CellTiter-Glo, cherry-picked (AID 624134). It is filed as functional, cell-based.
A short description of assay [15]: Luminescence Cell-Based Dose Retest to Confirm Inhibitors of Cancer Stem Cells. [Related pubchem assays (depositor defined):AID2717, AID2721]. It is filed as functional. The following applies: Homo sapiens.
In assay [16] the target is T6, Type-1 angiotensin II receptor (Homo sapiens, UniProt P30556).
T6 sequence (P30556 whole entry): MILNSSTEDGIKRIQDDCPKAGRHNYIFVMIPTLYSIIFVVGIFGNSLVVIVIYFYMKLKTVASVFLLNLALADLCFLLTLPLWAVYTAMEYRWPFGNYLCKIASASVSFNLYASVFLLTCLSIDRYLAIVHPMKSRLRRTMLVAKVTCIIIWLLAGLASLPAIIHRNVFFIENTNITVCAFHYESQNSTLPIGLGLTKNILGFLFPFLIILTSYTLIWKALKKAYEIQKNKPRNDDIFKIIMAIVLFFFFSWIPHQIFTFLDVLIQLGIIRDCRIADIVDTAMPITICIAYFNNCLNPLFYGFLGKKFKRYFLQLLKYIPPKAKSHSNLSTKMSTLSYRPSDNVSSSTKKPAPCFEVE
The assay is described as follows: AT1 receptor antagonists, dose response, selectivity assay for APJ receptor antagonist project, cell-based, uHTS hits (AID 463214).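 Further: antagonist potency against angiotensin II stimulated AT1 response.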 The format is functional.

Assay [17] addresses Heat shock protein HSP 90-alpha (Homo sapiens, UniProt P07900). It is filed as functional, organism-based.
Assay [18] in a line: Luminescence Cell-Based Dose Response HTS to Identify Inhibitors of 5'UTR Stem-Loop Driven Prion Protein mRNA Translation in H4 Neuroglioblastoma Cells. [Related pubchem assays: 1827 (Project Summary), 1813 (Primary HTS)]. It is filed as functional.
The target in a further assay is Beta-galactosidase (Escherichia coli, UniProt Q8VNN2). In words: PubChem AID 485352. The format is functional.
Chain of Beta-galactosidase (Q8VNN2 whole entry): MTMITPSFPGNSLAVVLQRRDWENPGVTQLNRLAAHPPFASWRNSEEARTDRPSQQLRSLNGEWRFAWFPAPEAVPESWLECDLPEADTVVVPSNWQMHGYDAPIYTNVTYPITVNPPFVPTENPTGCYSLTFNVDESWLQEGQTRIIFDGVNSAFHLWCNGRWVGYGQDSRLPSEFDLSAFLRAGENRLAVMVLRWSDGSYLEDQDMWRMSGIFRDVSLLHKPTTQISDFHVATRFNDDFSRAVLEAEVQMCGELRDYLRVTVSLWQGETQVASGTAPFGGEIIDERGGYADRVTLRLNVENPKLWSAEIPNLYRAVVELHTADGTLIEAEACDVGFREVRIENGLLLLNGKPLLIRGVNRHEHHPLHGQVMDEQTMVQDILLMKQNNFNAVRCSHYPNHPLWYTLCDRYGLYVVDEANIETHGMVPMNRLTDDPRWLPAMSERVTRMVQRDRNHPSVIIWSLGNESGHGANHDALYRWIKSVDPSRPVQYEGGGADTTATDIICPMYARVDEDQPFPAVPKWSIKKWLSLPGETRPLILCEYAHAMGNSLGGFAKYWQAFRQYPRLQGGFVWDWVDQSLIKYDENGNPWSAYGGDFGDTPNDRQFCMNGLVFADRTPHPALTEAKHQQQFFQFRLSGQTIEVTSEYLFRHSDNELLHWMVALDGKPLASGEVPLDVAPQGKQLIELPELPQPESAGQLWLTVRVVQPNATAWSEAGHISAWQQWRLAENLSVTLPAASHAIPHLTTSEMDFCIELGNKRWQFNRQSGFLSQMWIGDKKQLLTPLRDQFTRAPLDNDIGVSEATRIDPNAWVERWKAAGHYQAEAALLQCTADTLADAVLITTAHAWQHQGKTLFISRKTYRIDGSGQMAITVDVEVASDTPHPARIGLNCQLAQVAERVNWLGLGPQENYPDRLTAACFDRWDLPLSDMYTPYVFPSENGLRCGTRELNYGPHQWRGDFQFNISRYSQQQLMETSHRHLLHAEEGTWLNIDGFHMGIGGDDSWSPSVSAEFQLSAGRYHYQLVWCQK
Assay [19] can be described thus: Shn3 3'UTR reporter inhibitors, dose response, cell-based, Clone20 osteoblasts, firefly luciferase, cherry-picked (AID 624132).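 Further: firefly luciferase luminescence from reporter carrying the Shn3 3'UTR in osteoblasts.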 The format is functional.
The nature of assay [20]: inhibitors of SNCA 5'UTR-driven reporter translation, confirmation, H4 neuroglioma cells, luminescence (AID 1988). The format is functional, cell-based.
A short description of assay [21]: control 3'UTR Renilla luciferase suppression, dose response, counter-screen for Shn3 inhibitor project, cell-based, Clone20-Shn3RL, cherry-picked (AID 624133). The format is functional.

Chain of Beta Lactamase (Q932Y6 whole entry, the tested form may be a part): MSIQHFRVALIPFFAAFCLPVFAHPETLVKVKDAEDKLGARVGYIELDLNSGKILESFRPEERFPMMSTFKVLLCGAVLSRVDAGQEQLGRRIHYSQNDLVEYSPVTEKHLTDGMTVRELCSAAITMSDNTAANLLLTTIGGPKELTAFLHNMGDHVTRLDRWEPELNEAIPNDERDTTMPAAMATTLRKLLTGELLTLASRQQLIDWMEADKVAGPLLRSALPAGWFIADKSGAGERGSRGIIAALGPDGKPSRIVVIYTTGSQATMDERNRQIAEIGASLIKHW

Regarding `O=C(Nc1nc2ccccc2s1)c1cccs1`, the IC50 in [1] was 2.67 µM (active); in assay [2], > 99 µM (inactive); in assay [3], 2.5 µM (active); in [4], 2.2 µM (active); on Caspase-3 [5], 6.86 µM (active); on Caspase-3 [6] it was 72 µM (active). Besides, the results for the IC50 in [7] and in assay [8] were 2.07 µM (active) and > 99 µM (inactive), respectively.
With `Cc1ccc2nc(NCCc3ccc(Cl)cc3)c3nncn3c2c1`, the EC50 is 17.7 µM (active) in assay [9], > 99 µM (inactive) in assay [10], 33.1 µM (inactive) in assay [11] and > 99 µM (inactive) in assay [12]. Also, the CC50 in the assay on MEF was > 99 µM (inactive).
Consider `COc1ccc(OC)c(NC(=O)c2nc(S(=O)(=O)Cc3ccccc3)ncc2Cl)c1`, for which the IC50 on Beta Lactamase was 6.72 µM (active); in the assay on CHO, 1.05 µM (active); in [16] it was 5.87 µM (active). In addition, the EC50 was 12.2 µM (active) in assay [13], > 120 µM (not active) in assay [18], > 40 µM (inactive) at Beta-galactosidase and 11.6 µM (active) in assay [20]. Also, the AC50 in the assay with INS1 is 5.38 µM (active); in assay [14], 13.7 µM (active); in [15], 3.48 µM (active); in [17], 2.95 µM (active); in assay [19] it was 2.08 µM (active); in assay [21], 3.79 µM (active).
